Experimental data taken from patent US20260335398A1, “METHODS FOR TREATING PANCREATIC CANCER WITH A COMBINATION OF DES-METHYL PATEAMINE A AND A CLASS I HDAC INHIBITOR” (Baylor University, priority 2023, published 2026).

Experiments:
[1] = tested on: PDAC cell lines (Capan-1, PANC-1, AsPC-1, MIA PaCa-2); assay: Cytotoxicity/cell viability (CellTiter-Glo) of DMPatA on PDAC cell lines, 48 h (FIG. 6A); format: cell-based; settings: four PDAC cell lines (Capan-1, PANC-1, AsPC-1, MIA PaCa-2)
Method: FIG. 6A compares cytotoxicity graphs of the effect (viability) of DMPatA on various PDAC cell lines (Capan-1, PANC-1, AsPC-1, MIA PaCa-2) following 48 hours of treatment.
(§1) Previous studies have reported that inhibitors of translation initiation prevent cell proliferation and reduce levels of critical oncoproteins such as MYC and cyclinD1. The effects of DMPatA, a novel inhibitor of eIF4A helicase, was evaluated on four PDAC cell lines. All cells were sensitive to treatment with IC50s ranging from 2.8 to 10 nM (FIG. 6A). […] The efficacy of another eIF4Ai, zotatifin (eFT226), was evaluated on MIA PaCa-2 and KLM cells.
(§2) Cell viability was determined using CellTiter-Glo® reagent (Promega, #G7570) following the manufacturer's instructions. Cells were seeded at […] in white 96-well plates and grown overnight. They were then treated and incubated at 37 °C with 5% CO2. After incubation, assay reagent was added, and luminescent signals were quantified using a microplate reader (PHERAstar® FS, BMG LABTECH, Ortenberg, Germany). Caspase-Glo 3/7 assay (Promega, #G8091) was also employed following the manufacturer's instructions to measure apoptosis.

MIA PaCa-2 and KLM cells [2] = assay: RNA-seq gene expression analysis (FIG. 9A); format: cell-based; settings: total 18 h (6 h romidepsin 15 nM + 12 h with/without DMPatA 2 nM); |log2FC|≥1, adjusted p<0.05
Method: Plots show a significant increase in the overall gene expression in the cells treated with the combination. Cells treated for a total of 18 h (i.e., 6-hour romidepsin followed by 12-hour incubation with 2 nM DMPatA (combo) or without (Romi alone)).
To gain further insight into the effects of the combination treatment gene expression was profiled in MIA PaCa-2 and KLM cells treated with vehicle, the single agents, or the combination for a total of 18 h (i.e., 6-hour romidepsin treatment followed by 12-hour washout with 2 nM DMPatA or without), probing whether alterations observed following combination treatment could be explained by changes in gene expression.
Total RNA was extracted using RNeasy mini kit (Qiagen) from cells collected after 18 hours (6 hours romidepsin (15 nM)+12 hours washout with or without DMPatA (2 nM)) incubation with or without drugs. RNA quantitation and quality were assessed by the Agilent Bioanalyzer 2100 at the Molecular Pathology Shared Resource of the Herbert Irving Comprehensive Cancer Center at Columbia University (mBank). RNA library preparation and sequencing was performed at Columbia University's Sulzberger Genome Center. Briefly, poly-A pull-down was used to enrich mRNAs from total RNA samples, followed by library construction using Illumina TruSeq chemistry. Libraries were then sequenced using Illumina NovaSeq 6000. For the DESeq2 (v 1.40.2) analysis the data were imported with tximport in DESeq2 and a dds object was generated. Variance stabilizing transformation was used on the object and the output was used for the heatmap and PCA plots. Abundance of transcripts was estimated by pseudoalignment using kallisto, and downstream analysis was performed using R (v4.3.1) and the indicated packages. […] Differentially expressed genes were determined using linear regression method (limma v3.56.2), and genes with |log 2FC|≥1 and adjusted p-value <0.05 were plotted accordingly on volcano plots and heatmap (ggplot2 v3.5.0 and ComplexHeatmap v2.16.0). […]

[3] = Body weight of xenograft mice (FIG. 2B); format: in vivo, athymic nude mice; settings: IP; romidepsin 0.75 mg/kg, DMPatA 0.075 mg/kg
From the text: FIGS. 2A and 2B illustrate the results of a MIA PaCa-2 xenograft model of PDAC in male athymic nude mice. FIG. 2A compares tumor growth (mm^3) in mice treated with the indicated concentrations of combination, romidepsin and DMPatA using IP route and vehicles described in the materials and methods section below. FIG. 2B compares body weight (g) of mice treated with the combination and single agents following treatment. FIGS. 2C and 2D compare quantification of H3K9ac and c-MYC antibodies. Frozen sections from MIA PaCa-2 xenograft tumor tissues were subjected to immunohistochemical analysis using antibodies against H3K9ac, and c-MYC. Fluorescence images were captured using fluorescent microscopy and the fluorescent signal from H3K9ac and c-MYC antibodies were quantified. To quantify fluorescence intensity at least 500 cells per condition were measured for each antibody at 40× magnification. The median of the signal intensity is shown. Statistical significance was determined by one-way ANOVA using Tukey multiple comparisons test, ****p value<0.0001.
Animal studies were performed according to Institutional Animal Care and Use Committee (IACUC) protocol number AC-AABD2601. Following the establishment of initial dose levels for individual drugs, efficacy of the combination and single agents in a MIA PaCa-2 xenograft model was assessed at a tolerable dose and schedule. […]

MIA PaCa-2 and KLM cells [4] = assay: Cell proliferation with zotatifin on MIA PaCa-2 and KLM cells; format: cell-based
Method: as §1, §2

c-MYC = assay: Immunoblot of c-MYC protein levels in PDAC cell lines treated with DMPatA and DMDAPatA (FIG. 6B); format: cell-based; settings: Capan-1, PANC-1, AsPC-1, MIA PaCa-2; 24 and 48 hours; DMPatA 10 and 20 nM, DMDAPatA 40 nM
Method: FIG. 6B compares immunoblots of c-MYC protein levels from whole cell extracts of various PDAC cell lines (Capan-1, PANC-t, AsPC-1, MIA PaCa-2) treated with DMPatA (10 nM and 20 nM) and DMDPatA ([…]) (40 nM). Treatment was for 24 and 48 hours.
Western blotting was carried out as previously described (Luchenko V L, Litman T, Chakraborty A R, et al. 65. Membranes were probed with primary antibodies: Phospho-Histone H2A.X (Ser139) (1:1000, Millipore Sigma #05-636), GAPDH (1:10000, Abcam #ab8245), c-Myc (1:1000, Abcam #ab32072), β-Actin (1:1000, Cell Signaling Technology (CST), #8457), Phospho-RPA32/RPA2 (Ser33) (1:1000, Cell Signaling Technology #10148), Phospho-Chk1 (Ser345) (1:1000, CST #2341), and secondary antibodies IRDye® 680RD Goat anti-Mouse and IRDye® 800CW Goat anti-Rabbit (both from LI-COR Biosciences). Signal quantification was performed using the Odyssey CLx imaging system (LI-COR Biosciences), capturing various exposures within the linear range with ImageStudio software V3.1 (LI-COR Biosciences).

CC(/C=C/C(C)=C/[C@@H]1Cc2nc(cs2)CC[C@@H](N)CC(=O)O[C@@H](C)C/C(C)=C/C=C\C(=O)O1)=C\CN(C)C [DMPatA, des-methyl pateamine A]
IC50 [1]: 2.8 to 10 nM
number of differentially expressed genes (DEGs) (MIA PaCa-2 and KLM cells [2]): 1443 DEGs
body weight vs vehicle [3]: neither the single agent nor the combination treatments had a significant impact on weight

COc1cc2c(c(OC)n1)[C@]1(O)[C@H](O)[C@H](CN(C)C)[C@@H](c3ccccc3)[C@]1(c1ccc(C#N)cc1)O2 [zotatifin]
potency in suppressing proliferation, DMPatA vs zotatifin (MIA PaCa-2 and KLM cells [4]): reduced potency, compared to DMPatA

CC(/C=C/C(C)=C/[C@@H]1Cc2nc(cs2)CCCCC(=O)O[C@@H](C)C/C(C)=C/C=C\C(=O)O1)=C\CN(C)C [DMDAPatA, des-methyl des-amino pateamine A]
c-MYC protein levels (c-MYC): reduced c-MYC levels in all cell lines
